Laboratory results from patent US20040209891A1, “Treatment of type 2 diabetes with inhibitors of dipeptidyl peptidase IV” (priority 2001, published 2004).
Where a name gives a salt, the structure may show the parent alone.

What was measured:
ZDF rat = assay: Effect of long-term inhibition of DP-IV in ZDF rat (four weeks dosing); type: in vivo; conditions: male ZDF rats; for Glycaemia: day of development of significant hyperglycaemia: obese control hyperglycaemic at day 8
Description: Control animals are given vehicle. A group of untreated lean rats is used as a comparison. Glycaemia, insulinaemia, body weight, food and water intake, and plasma triglyceride and free fatty acid levels are monitored throughout the study.

Human DP-IV = Human DP-IV (Homo sapiens, UniProt P27487); type: biochemical; conditions: substrate Ala-Pro-AFC, fluorescence
Sequence of Human DP-IV (P27487 whole entry): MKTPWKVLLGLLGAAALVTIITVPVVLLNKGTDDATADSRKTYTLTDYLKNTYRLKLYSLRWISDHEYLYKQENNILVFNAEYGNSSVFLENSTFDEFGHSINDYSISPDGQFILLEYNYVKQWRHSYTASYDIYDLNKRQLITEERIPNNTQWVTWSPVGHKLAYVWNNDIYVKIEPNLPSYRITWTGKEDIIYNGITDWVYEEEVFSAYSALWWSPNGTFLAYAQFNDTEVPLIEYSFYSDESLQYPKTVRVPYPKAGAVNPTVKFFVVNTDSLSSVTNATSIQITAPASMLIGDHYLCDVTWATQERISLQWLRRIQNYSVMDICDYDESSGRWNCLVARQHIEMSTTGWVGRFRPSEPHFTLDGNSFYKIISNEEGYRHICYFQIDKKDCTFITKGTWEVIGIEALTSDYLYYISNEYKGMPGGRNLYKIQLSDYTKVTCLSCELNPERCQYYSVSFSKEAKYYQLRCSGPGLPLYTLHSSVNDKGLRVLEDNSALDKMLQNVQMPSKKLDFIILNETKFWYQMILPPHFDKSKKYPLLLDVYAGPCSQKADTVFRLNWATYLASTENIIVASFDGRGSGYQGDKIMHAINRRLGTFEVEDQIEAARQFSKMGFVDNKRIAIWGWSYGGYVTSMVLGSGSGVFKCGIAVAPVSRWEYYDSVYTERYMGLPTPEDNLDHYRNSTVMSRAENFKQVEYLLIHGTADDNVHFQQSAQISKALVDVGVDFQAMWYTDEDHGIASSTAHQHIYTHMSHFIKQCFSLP
Description: The in vitro inhibitory action of the compounds is determined in a fluorimetric assay. Human DP-IV is incubated with a standard substrate, Ala-Pro-AFC, in the presence of various concentrations of the inhibitor. The reaction is monitored by measuring the increase in fluorescence due to the reaction product, AFC. Using standard manipulations, an inhibitory constant, Ki, is determined.

Compound: CC(C)(C)[C@H](N)C(=O)N1CCC[C@H]1C#N [Example 1A, (2S)-1-((2′S)-2′-amino-3′,3′-dimethylbutanoyl)pyrrolidine-2-carbonitrile hydrochloride]
- Glycaemia: day of development of significant hyperglycaemia (ZDF rat; 10 mg/kg p.o. once daily): 15 days
- Insulinaemia: day on which peak insulin level is reached (ZDF rat; 10 mg/kg p.o. once daily, obese control peak by day 8): 11 days
- Glycaemia: day of development of significant hyperglycaemia (ZDF rat; 10 mg/kg p.o. twice daily): 24 days

Compound: N#C[C@@H]1CCCN1C(=O)[C@@H](N)CCCNC(=O)c1cnccn1 [Example 1B, (2S)-1-((2′S)-2′-amino-5′-pyrazinecarbonylaminopentanoyl)pyrrolidine-2-carbonitrile trifluoroacetate]
- Ki (Human DP-IV): 0.4 nM
